Laboratory results from patent US20070049593A1 (priority 2004, published 2007).
Where a name gives a salt, the structure may show the parent alone.

Target: T1, HCV polymerase (Hepatitis C virus genotype 1b, UniProt P26663)
T1 construct: a region encoding NS5B (J Virol 1991 March, 65(3), 1105-13, 544 amino acids after deletion of 47 amino acids on the C-terminal); 6xHis (C); made in house; host or cells: Escherichia coli
Assay: biochemical
Design: species or system HCV BK strain
Method in brief: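 His-tagged NS5B (BK strain, 47-aa C-terminal deletion, E. coli-expressed) at 0.5 μg/ml copied 5 μg/ml run-off RNA bearing the HCV 3′ UTR with 2 μM UTP plus [3H]UTP, 50 μM ATP/GTP, in pH 7.5 Tris with 5 mM MgCl2, 25 °C, 90 min. TCA-precipitated RNA was counted and IC50 calculated.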

T1 sequence (P26663 2420-2963): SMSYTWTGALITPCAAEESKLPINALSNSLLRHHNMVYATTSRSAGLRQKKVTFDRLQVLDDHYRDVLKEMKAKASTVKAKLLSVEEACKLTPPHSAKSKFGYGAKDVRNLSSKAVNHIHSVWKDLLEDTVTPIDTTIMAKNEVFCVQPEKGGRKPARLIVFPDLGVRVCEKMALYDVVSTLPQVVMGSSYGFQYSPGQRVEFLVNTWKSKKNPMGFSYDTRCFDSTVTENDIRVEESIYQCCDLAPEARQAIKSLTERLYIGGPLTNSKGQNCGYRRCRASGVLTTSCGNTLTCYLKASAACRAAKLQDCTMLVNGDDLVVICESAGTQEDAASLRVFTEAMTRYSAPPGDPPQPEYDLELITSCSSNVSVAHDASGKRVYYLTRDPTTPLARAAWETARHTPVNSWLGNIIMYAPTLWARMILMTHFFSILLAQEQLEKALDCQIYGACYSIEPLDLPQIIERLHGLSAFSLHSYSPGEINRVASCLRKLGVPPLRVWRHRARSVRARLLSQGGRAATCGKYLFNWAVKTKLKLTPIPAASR

CC1CC(C)CN(C(=O)CN2CCn3c(c(C4CCCCC4)c4ccc(C(=O)O)cc43)-c3ccccc32)C1 (stereo not drawn) [Example 1-187, 13-cyclohexyl-5-[2-(3,5-dimethylpiperidin-1-yl)-2-oxoethyl]-6,7-dihydro-5H-benzo[5,6][1,4]diazepino[7,1-a]indole-10-carboxylic acid monohydrochloride]
IC50: < 100 nM

CCC1CCCN(C(=O)CN2CCn3c(c(C4CCCCC4)c4ccc(C(=O)O)cc43)-c3ccccc32)C1 (stereo not drawn) [Example 1-188, 13-cyclohexyl-5-[2-(3-ethylpiperidin-1-yl)-2-oxoethyl]-6,7-dihydro-5H-benzo[5,6][1,4]diazepino[7,1-a]indole-10-carboxylic acid monohydrochloride]
IC50: < 100 nM

CC1CC(C)CN(CCN2CCn3c(c(C4CCCCC4)c4ccc(C(=O)O)cc43)-c3ccccc32)C1 (stereo not drawn) [Example 1-189, 13-cyclohexyl-5-[2-(3,5-dimethylpiperidin-1-yl)ethyl]-6,7-dihydro-5H-benzo[5,6][1,4]diazepino[7,1-a]indole-10-carboxylic acid dihydrochloride]
IC50: < 100 nM

CCC1CCCN(CCN2CCn3c(c(C4CCCCC4)c4ccc(C(=O)O)cc43)-c3ccccc32)C1 (stereo not drawn) [Example 1-190, 13-cyclohexyl-5-[2-(3-ethylpiperidin-1-yl)ethyl]-6,7-dihydro-5H-benzo[5,6][1,4]diazepino[7,1-a]indole-10-carboxylic acid dihydrochloride]
IC50: < 100 nM

Cc1ccc2c(c1)-c1c(C3CCCCC3)c3ccc(C(=O)O)cc3n1CCN2CCN1CCCCC1 [Example 1-191, 13-cyclohexyl-2-methyl-5-[2-(piperidin-1-yl)ethyl]-6,7-dihydro-5H-benzo[5,6][1,4]diazepino[7,1-a]indole-10-carboxylic acid dihydrochloride]
IC50: 100 to 1000 nM

CCCC1CCN(CCN2CCn3c(c(C4CCCCC4)c4ccc(C(=O)O)cc43)-c3ccccc32)CC1 [Example 1-192, 13-cyclohexyl-5-[2-(4-propylpiperidin-1-yl)ethyl]-6,7-dihydro-5H-benzo[5,6][1,4]diazepino[7,1-a]indole-10-carboxylic acid dihydrochloride]
IC50: < 100 nM

C[C@@H]1CCC[C@H](C)N1CCN1CCn2c(c(C3CCCCC3)c3ccc(C(=O)O)cc32)-c2ccccc21 [Example 1-193, 13-cyclohexyl-5-[2-((2S,6R)-2,6-dimethylpiperidin-1-yl)ethyl]-6,7-dihydro-5H-benzo[5,6][1,4]diazepino[7,1-a]indole-10-carboxylic acid dihydrochloride]
IC50: < 100 nM

O=C(O)c1ccc2c(C3CCCCC3)c3n(c2c1)CCN(CCCN1CCCCCC1)c1ccccc1-3 [Example 1-194, 5-[3-(azepan-1-yl)propyl]-13-cyclohexyl-6,7-dihydro-5H-benzo[5,6][1,4]diazepino[7,1-a]indole-10-carboxylic acid dihydrochloride]
IC50: < 100 nM

O=C(CN1CCn2c(c(C3CCCCC3)c3ccc(C(=O)O)cc32)-c2ccccc21)NC12CC3CC(CC(C3)C1)C2 [Example 1-195, 5-(adamantan-1-ylcarbamoylmethyl)-13-cyclohexyl-6,7-dihydro-5H-benzo[5,6][1,4]diazepino[7,1-a]indole-10-carboxylic acid monohydrochloride]
IC50: < 100 nM

O=C(O)c1ccc2c(C3CCCCC3)c3n(c2c1)CCN(CCNC12CC4CC(CC(C4)C1)C2)c1ccccc1-3 [Example 1-196, 5-[2-(adamantan-1-ylamino)ethyl]-13-cyclohexyl-6,7-dihydro-5H-benzo[5,6][1,4]diazepino[7,1-a]indole-10-carboxylic acid dihydrochloride]
IC50: < 100 nM

COCC1CCN(CCN2CCn3c(c(C4CCCCC4)c4ccc(C(=O)O)cc43)-c3ccccc32)CC1 [Example 1-197, 13-cyclohexyl-5-[2-(4-methoxymethylpiperidin-1-yl)ethyl]-6,7-dihydro-5H-benzo[5,6][1,4]diazepino[7,1-a]indole-10-carboxylic acid dihydrochloride]
IC50: < 100 nM

CCCN(C)CCN1CCn2c(c(C3CCCCC3)c3ccc(C(=O)O)cc32)-c2ccccc21 [Example 1-198, 13-cyclohexyl-5-[2-(N-methyl-N-propylamino)ethyl]-6,7-dihydro-5H-benzo[5,6][1,4]diazepino[7,1-a]indole-10-carboxylic acid dihydrochloride]
IC50: < 100 nM

CC1(C)CCN(CCN2CCn3c(c(C4CCCCC4)c4ccc(C(=O)O)cc43)-c3ccccc32)CC1 [Example 1-199, 13-cyclohexyl-5-[2-(4,4-dimethylpiperidin-1-yl)ethyl]-6,7-dihydro-5H-benzo[5,6][1,4]diazepino[7,1-a]indole-10-carboxylic acid dihydrochloride]
IC50: < 100 nM

COCC1CCCN(CCN2CCn3c(c(C4CCCCC4)c4ccc(C(=O)O)cc43)-c3ccccc32)C1 (stereo not drawn) [Example 1-200, 13-cyclohexyl-5-[2-(3-methoxymethylpiperidin-1-yl)ethyl]-6,7-dihydro-5H-benzo[5,6][1,4]diazepino[7,1-a]indole-10-carboxylic acid dihydrochloride]
IC50: < 100 nM

CN1CCCC(CCN2CCn3c(c(C4CCCCC4)c4ccc(C(=O)O)cc43)-c3ccccc32)C1 (stereo not drawn) [Example 1-201, 13-cyclohexyl-5-[2-(1-methylpiperidin-3-yl)ethyl]-6,7-dihydro-5H-benzo[5,6][1,4]diazepino[7,1-a]indole-10-carboxylic acid dihydrochloride]
IC50: < 100 nM

CC(C)N1CCCC(CCN2CCn3c(c(C4CCCCC4)c4ccc(C(=O)O)cc43)-c3ccccc32)C1 (stereo not drawn) [Example 1-202, 13-cyclohexyl-5-[2-(1-isopropylpiperidin-3-yl)ethyl]-6,7-dihydro-5H-benzo[5,6][1,4]diazepino[7,1-a]indole-10-carboxylic acid dihydrochloride]
IC50: < 100 nM

O=C(O)c1ccc2c(C3CCCCC3)c3n(c2c1)CC(=O)N(CC(=O)N1CCCCC1)c1ccccc1-3 [Example 1-203, 13-cyclohexyl-6-oxo-5-[2-oxo-2-(piperidin-1-yl)ethyl]-6,7-dihydro-5H-benzo[5,6][1,4]diazepino[7,1-a]indole-10-carboxylic acid]
IC50: < 100 nM

CCN1CCN(C(=O)CN2C(=O)Cn3c(c(C4CCCCC4)c4ccc(C(=O)O)cc43)-c3ccccc32)CC1 [Example 1-204, 13-cyclohexyl-5-[2-(4-ethylpiperazin-1-yl)-2-oxoethyl]-6-oxo-6,7-dihydro-5H-benzo[5,6][1,4]diazepino[7,1-a]indole-10-carboxylic acid monohydrochloride]
IC50: < 100 nM

O=C(O)c1ccc2c(C3CCCCC3)c3n(c2c1)CCN(CCN1CC=CCC1)c1ccccc1-3 [Example 1-205, 13-cyclohexyl-5-[2-(3,6-dihydro-2H-pyridin-1-yl)ethyl]-6,7-dihydro-5H-benzo[5,6][1,4]diazepino[7,1-a]indole-10-carboxylic acid]
IC50: < 100 nM

Cc1cccc2c1N(CCN1CCCCC1)CCn1c-2c(C2CCCCC2)c2ccc(C(=O)O)cc21 [Example 1-206, 13-cyclohexyl-4-methyl-5-[2-(piperidin-1-yl)ethyl]-6,7-dihydro-5H-benzo[5,6][1,4]diazepino[7,1-a]indole-10-carboxylic acid dihydrochloride]
IC50: < 100 nM

COC[C@@H]1CCCN1CCN1CCn2c(c(C3CCCCC3)c3ccc(C(=O)O)cc32)-c2ccccc21 [Example 1-207, 13-cyclohexyl-5-[2-((S)-2-methoxymethylpyrrolidin-1-yl)ethyl]-6,7-dihydro-5H-benzo[5,6][1,4]diazepino[7,1-a]indole-10-carboxylic acid dihydrochloride]
IC50: < 100 nM

CC1CCCN1CCN1CCn2c(c(C3CCCCC3)c3ccc(C(=O)O)cc32)-c2ccccc21 (stereo not drawn) [Example 1-208, 13-cyclohexyl-5-[2-(2-methylpyrrolidin-1-yl)ethyl]-6,7-dihydro-5H-benzo[5,6][1,4]diazepino[7,1-a]indole-10-carboxylic acid dihydrochloride]
IC50: < 100 nM

CC(C)CN(C)CCN1CCn2c(c(C3CCCCC3)c3ccc(C(=O)O)cc32)-c2ccccc21 [Example 1-209, 13-cyclohexyl-5-[2-(N-isobutyl-N-methylamino)ethyl]-6,7-dihydro-5H-benzo[5,6][1,4]diazepino[7,1-a]indole-10-carboxylic acid dihydrochloride]
IC50: < 100 nM

O=C(O)c1ccc2c(C3CCCCC3)c3n(c2c1)CC(=O)N(CC(=O)N1CCOCC1)c1ccccc1-3 [Example 1-210, 13-cyclohexyl-5-[2-(morpholin-4-yl)-2-oxoethyl]-6-oxo-6,7-dihydro-5H-benzo[5,6][1,4]diazepino[7,1-a]indole-10-carboxylic acid]
IC50: < 100 nM

O=C(O)c1ccc2c(C3CCCCC3)c3n(c2c1)CCN(CCN1CCCCC1)c1cc(OCc2ccccc2)ccc1-3 [Example 1-211, 3-benzyloxy-13-cyclohexyl-5-[2-(piperidin-1-yl)ethyl]-6,7-dihydro-5H-benzo[5,6][1,4]diazepino[7,1-a]indole-10-carboxylic acid dihydrochloride]
IC50: < 100 nM

CC(C)N(C)CCN1CCn2c(c(C3CCCCC3)c3ccc(C(=O)O)cc32)-c2ccccc21 [Example 1-212, 13-cyclohexyl-5-[2-(N-isopropyl-N-methylamino)ethyl]-6,7-dihydro-5H-benzo[5,6][1,4]diazepino[7,1-a]indole-10-carboxylic acid dihydrochloride]
IC50: < 100 nM

CC1CCCCN1CCN1CCn2c(c(C3CCCCC3)c3ccc(C(=O)O)cc32)-c2ccc(Cl)cc21 (stereo not drawn) [Example 1-213, 3-chloro-13-cyclohexyl-5-[2-(2-methylpiperidin-1-yl)ethyl]-6,7-dihydro-5H-benzo[5,6][1,4]diazepino[7,1-a]indole-10-carboxylic acid dihydrochloride]
IC50: < 100 nM
